Test results from the NIST ThermoML archive (doi:10.1016/j.jct.2005.03.012).

Assay: molar heat capacity at constant pressure
Conditions: Liquid, Flow calorimetry

CO [methanol]
molar heat capacity at constant pressure [J/K/mol]
Conditions | 248.15 K | 273.15 K | 298.15 K | 323.15 K | 348.15 K | 373.15 K | 398.15 K | 423.15 K | 473.15 K
500 kPa | 74.02 | 77.03 | 81.39 | 86.87 | 93.66 | 101.83 | – | – | –
1000 kPa | 74.02 | 77 | 81.35 | 86.8 | 93.59 | 101.76 | 111.86 | – | –
2500 kPa | 73.95 | 76.93 | 81.19 | 86.64 | 93.43 | 101.41 | 111.28 | 122.98 | –
5000 kPa | 73.89 | 76.84 | 81.07 | 86.45 | 93.18 | 101 | 110.38 | 121.41 | 162.32
7500 kPa | 73.79 | 76.8 | 81.03 | 86.29 | 92.92 | 100.64 | 109.58 | 120.03 | 152.94
10000 kPa | 73.79 | 76.77 | 80.91 | 86.13 | 92.73 | 100.23 | 108.97 | 118.84 | 146.91
12500 kPa | 73.76 | 76.74 | 80.91 | 86 | 92.41 | 99.97 | 108.33 | 117.85 | 142.75
